Test results reported in patent US11767289B2, “Methods and compositions for pest control” (VMI Foundation, priority 2010, dated 2023).

Assay: Solvent for extracting tyramides from dissected tissue
Format: physicochemical
Conditions: extraction of dissected tissue
Experimental: Mature male […] (winged male sexuals) were used in all experiments. Maturity could only be determined upon dissection and determination of whether or not the male's testes were degenerated. This is the key indicator of maturity. See Ball and Vinson, Int. J. Insect Morphol. Embryol. 13:283-294 (1984) for a description and figure of the fire ant male genitalia. Males were discarded if their testes were not degenerated. Dissection of the male reproductive system was carried out in a drop of water. The entire system included pairs of degenerated testes, seminal vesicle, accessory glands, and the single external genitalia. After dissection of the entire system the three sections were further dissected: A) degenerated testes and seminal vesicle; B) accessory glands; and C) external genitalia. […]

## CC(=O)NCCc1ccc(O)cc1 [Compound 1, acetyl tyramide]
  suitability of methylene chloride as solvent: poor solvent
